Assay results published in patent publication US20090305995A1, “AGONISTS AND ANTAGONISTS OF THE SOMATOSTATIN RECEPTOR” (Novartis AG, priority 2004, published 2009).
In brackets after ≈: the same amount, converted by molar mass. Where two headings read alike, the source gives them in different places.

Legend:
Type in all cases: physicochemical
[1] = HT-logP o/w, high throughput assay based on artificial liquid membrane permeability
Text: To be absorbed and transported by passive diffusion, drugs must be sufficiently lipophilic to penetrate the lipid cores of membranes, but not too lipophilic that they get retained and accumulated there. The lipophilictity of a compound is expressed by the octanol/water partition coefficient or distribution coefficient. A first approximation of substance polarity can either be given by computer assisted calculations giving Clog P values or by measurement of the partition coefficients in high-throughput assays (HT-log P o/w) (Faller et al., 2004; Wohnsland et al., 2001).
Octanol/water partition coefficients are measured in a high throughput assay based on artificial liquid membrane permeability. […] Still many approaches to calculate log P values are limited due to a lack of parameterization of certain fragments and fail with increasing molecular weight which implicates higher structural complexity. Similar problems and failures are observed in chromatographic determinations of log P: Peptides might undergo structural changes driven by interactions with the stationary phase. Decisive interactions between the stationary phase and the defolded analytes are therefore also based on the linear peptide sequence. For this reason measured HT-log P o/w values based on chromatographic assays employing stationary phases may lead to erroneous results.

[2] = high throughput permeability (HT-Permeability, log Pe); conditions: PAMPA, Pe in cm/s
[3] = high throughput solubility (HT-Solubility); conditions: for water solubility (in words): see FIG. 10
[4] = octanol/water, read-out: HT LogP ohw
[5] = pH 4, pH 4.0, read-out: HT-Permeability logPe pH 4.0 (converted)
[6] = pH 6.8, pH 6.8, read-out: HT-Permeability logPe pH 6.8 (converted)
[7] = pH 1, pH 1.0, read-out: HT-Solubility pH 1.0
[8] = pH 6.8, pH 6.8, read-out: HT-Solubility pH 6.8
[9] = pH 8, pH 8.0, read-out: HT-Permeability logPe pH 8.0 (converted)

Row | logP [1, 4] | Papp [2, 5] [×10⁻⁶ cm/s] | Papp [2, 6] [×10⁻⁶ cm/s] | solubility [3, 7] [µg/mL] | solubility [3, 8] [µg/mL] | Papp [2, 9] [×10⁻⁶ cm/s] | water solubility (in words) [3] | HT LogP ohw ([1]; octanol/water) | HT-Solubility pH 1.0 ([3]; pH 1.0) [g 1-1] | HT-Solubility pH 6.8 ([3]; pH 6.8) [g 1-1] | SMILES | logP ([1]; octanol/water; read-out: HT LogP ohw) | Papp ([2]; pH 4.0, read-out: HT-Permeability logPe pH 4.0 (converted)) [×10⁻⁶ cm/s] | solubility ([3]; pH 1.0, read-out: HT-Solubility pH 1.0) [µg/mL] | solubility ([3]; pH 6.8, read-out: HT-Solubility pH 6.8) [µg/mL]
1 | 4.2 | 12.6 | 2.51 | 15.2 (≈ 19.9 µM) | 15.2 (≈ 19.9 µM) |  |  |  |  |  | CCCCCCCCC(=O)N[C@H](CC(=O)N[C@H](Cc1c[nH]c2ccccc12)C(=O)N[C@@H](CCCCN)CC(=O)N[C@H](CC(N)=O)[C@@H](C)O)Cc1ccccc1 [Compound 17, Nonanoyl-(S)-β^3-HPhe-(R)-Trp-(S)-β^3-HLys-(R), (R)—HThr-NH2] |  |  |  | 
2 | 2.7 | 0.1 |  | 36.8 (≈ 49.9 µM) | 7.4 (≈ 10 µM) |  |  |  |  |  | C[C@H]1OC(=O)C[C@H]1NC(=O)C[C@H](CCCCN)NC(=O)[C@@H](Cc1c[nH]c2ccccc12)NC(=O)C[C@H](Cc1ccccc1)NC(=O)CCc1ccccc1 [Compound 10, Dihydrocinnemoyl-(S)-β^3-HPhe-(R)-Trp-(S)-β^3-HLys-(R)-4-amino-(R)-5-methyl-dihydro-furan-2-one] |  |  |  | 
3 | 2.8 | 3.16 |  | 153 (≈ 200 µM) | 76.7 (≈ 100 µM) | 10 | good water solubility |  |  |  | C[C@H]1OC(=O)C[C@H]1NC(=O)C[C@H](CCCCN)NC(=O)[C@@H](Cc1c[nH]c2ccccc12)NC(=O)C[C@H](Cc1ccccc1)NC(=O)C12CC3CC(CC(C3)C1)C2 [Compound 13, Adamantoyl-(S)-β^3-HPhe-(R)-Trp-(S)-β^3-HLys-(R)-4-amino-(R)-5-methyl-dihydro-furan-2-one] |  |  |  | 
4 | 3.1 | 7.94 | 5.01 | 124 (≈ 200 µM) | 30.9 (≈ 49.9 µM) | 10 | medium to good |  |  |  | CCCCNC(=O)C[C@H](CCCCN)NC(=O)[C@@H](Cc1c[nH]c2ccccc12)NC(=O)C[C@H](Cc1ccccc1)NC(=O)CC [Compound 53, Propionyl-(S)-β^3-HPhe-(R)-Trp-(S)-β^3-HLys-butyl-amide] |  |  |  | 
5 |  |  |  |  |  |  |  |  |  |  | C[C@H]1OC(=O)C[C@H]1NC(=O)C[C@H](CCCCN)NC(=O)[C@@H](Cc1c[nH]c2ccccc12)NC(=O)C[C@H](Cc1ccccc1)NC(=O)c1ccccc1 [Compound 6, Benzoyl-(S)-β^3-HPhe-(R)-Trp-(S)-β^3-HLys-(R)-4-amino-(R)-5-methyl-dihydro-furan-2-one] | 2.8 | 0.1 | 142 (≈ 200 µM) | 14.2 (≈ 20 µM)
6 | 3.6 | 2.51 | 3.98 | 132 (≈ 200 µM) | 132 (≈ 200 µM) | 1 | highest solubility values |  |  |  | CCCCCN(C)C(=O)C[C@H](CCCCN)NC(=O)[C@@H](Cc1c[nH]c2ccccc12)NC(=O)C[C@H](Cc1ccccc1)NC(=O)CCC [Compound 41, Butyroyl-(S)-β^3-HPhe-(R)-Trp-(S)-β^3-HLys-methyl-pentyl-amide] |  |  |  | 
7 | 3.7 | 1 | 2 | 64.7 (≈ 100 µM) | 129 (≈ 200 µM) | 5.01 | highest solubility values |  |  |  | CCCCN(C)C(=O)C[C@H](CCCCN)NC(=O)[C@@H](Cc1c[nH]c2ccccc12)NC(=O)C[C@H](Cc1ccccc1)NC(=O)CCC [Compound 42, Butyroyl-(S)-β^3-HPhe-(R)-Trp-(S)-β^3-HLys-methyl-butyl-amide] |  |  |  | 
8 |  |  |  |  |  | 3.98 | medium to good | 3.4 | 0.1266 | 0.0316 | CCCCCNC(=O)C[C@H](CCCCN)NC(=O)[C@@H](Cc1c[nH]c2ccccc12)NC(=O)C[C@H](Cc1ccccc1)NC(=O)CC [Compound 51, Propionyl-(S)-β^3-HPhe-(R)-Trp-(S)-β^3-HLys-pentyl-amide] |  |  |  | 

Row | SMILES | logP [1, 4] | Papp [2, 5] [×10⁻⁶ cm/s] | Papp [2, 6] [×10⁻⁶ cm/s] | solubility [3, 7] [µg/mL] | solubility [3, 8] [µg/mL] | Papp [2, 9] [×10⁻⁶ cm/s] | water solubility (in words) [3] | HT LogP ohw ([1]; octanol/water) | HT-Solubility pH 1.0 ([3]; pH 1.0) [g 1-1] | HT-Solubility pH 6.8 ([3]; pH 6.8) [g 1-1] | logP ([1]; octanol/water; read-out: HT LogP ohw) | Papp ([2]; pH 4.0, read-out: HT-Permeability logPe pH 4.0 (converted)) [×10⁻⁶ cm/s] | solubility ([3]; pH 1.0, read-out: HT-Solubility pH 1.0) [µg/mL] | solubility ([3]; pH 6.8, read-out: HT-Solubility pH 6.8) [µg/mL]
9 | CCCCCCN(C)C(=O)C[C@H](CCCCN)NC(=O)[C@@H](Cc1c[nH]c2ccccc12)N(Cc1ccccc1)C(=O)C[C@H](Cc1ccccc1)NC(=O)CC [Compound 68] | 5.5 | 0.1 |  | 75.1 (≈ 100 µM) | 15 (≈ 20 µM) |  | does not allow for good water solubilities |  |  |  |  |  |  | 
